Converted amounts (≈) assume the structure as drawn.
Columns and labels:
Staphylococcus aureus [1] = test: Antibacterial activity against Staphylococcus aureus containing DNA gyrase M121K mutations; format: functional
[2] = biological target: Voltage-gated inwardly rectifying potassium channel KCNH2 (Homo sapiens, UniProt Q12809); test: Inhibition of human ERG
Staphylococcus aureus [3] = test: Antibacterial activity against Staphylococcus aureus containing DNA gyrase D83N mutations; format: functional
[4] = Inhibition of Staphylococcus aureus DNA topoisomerase 4
[5] = Inhibition of Staphylococcus aureus DNA gyrase
Staphylococcus aureus [6] = test: Antibacterial activity against fluoroquinolone-sensitive Staphylococcus aureus 1146; format: functional
Staphylococcus aureus [7] = test: Antibacterial activity against fluoroquinolone-resistant Staphylococcus aureus 1095; format: functional
Staphylococcus aureus [8] = test: Antibacterial activity against Staphylococcus aureus; format: functional
Streptococcus pyogenes = test: Antibacterial activity against Streptococcus pyogenes; format: functional
[9] = Stability assessed as increase in metabolism rate under in-vitro conditions; format: physicochemical
[10] = Ratio of fAUC in fluoroquinolone-resistant Staphylococcus aureus infected mouse neutropenic thigh model to MIC for fluoroquinolone-resistant Staphylococcus aureus
Cavia porcellus [11] = test: fCmax in anesthetized guinea pig model; format: ADME
Cavia porcellus [12] = test: Cardiotoxicity in anesthetized guinea pig model assessed as prolongation of monophasic action potential duration at fCmax level; format: toxicity
Cavia porcellus [13] = test: Cardiotoxicity in anesthetized guinea pig model assessed as increase in cardiac alternans at fCmax level; format: toxicity
[14] = Fraction unbound in mouse plasma; format: ADME, cell-free
[15] = Fraction unbound in rat plasma; format: ADME, cell-free
[16] = Fraction unbound in human plasma; format: ADME, cell-free
[17] = Clearance in mouse at 10 mg/kg, iv; format: ADME, organism-based; details: in vivo
[18] = Volume of distribution at steady state in mouse at 10 mg/kg, iv; format: ADME, organism-based; details: in vivo, read-out: Vdss
[19] = Half life in mouse at 10 mg/kg, iv; format: ADME, organism-based; details: in vivo
[20] = Clearance in rat at 2 mg/kg, iv; format: ADME, organism-based; details: in vivo
[21] = Volume of distribution at steady state in rat at 2 mg/kg, iv; format: ADME, organism-based; details: in vivo, read-out: Vdss
[22] = Half life in rat at 2 mg/kg, iv; format: ADME, organism-based; details: in vivo
Staphylococcus aureus [23] = test: Antibacterial activity against fluoroquinolone-resistant Staphylococcus aureus infected in mouse neutropenic thigh model assessed as static dose required for bacterial stasis; format: functional
[24] = Cmax in human; format: ADME

Voltage-gated inwardly rectifying potassium channel KCNH2, sequence (Q12809 whole entry): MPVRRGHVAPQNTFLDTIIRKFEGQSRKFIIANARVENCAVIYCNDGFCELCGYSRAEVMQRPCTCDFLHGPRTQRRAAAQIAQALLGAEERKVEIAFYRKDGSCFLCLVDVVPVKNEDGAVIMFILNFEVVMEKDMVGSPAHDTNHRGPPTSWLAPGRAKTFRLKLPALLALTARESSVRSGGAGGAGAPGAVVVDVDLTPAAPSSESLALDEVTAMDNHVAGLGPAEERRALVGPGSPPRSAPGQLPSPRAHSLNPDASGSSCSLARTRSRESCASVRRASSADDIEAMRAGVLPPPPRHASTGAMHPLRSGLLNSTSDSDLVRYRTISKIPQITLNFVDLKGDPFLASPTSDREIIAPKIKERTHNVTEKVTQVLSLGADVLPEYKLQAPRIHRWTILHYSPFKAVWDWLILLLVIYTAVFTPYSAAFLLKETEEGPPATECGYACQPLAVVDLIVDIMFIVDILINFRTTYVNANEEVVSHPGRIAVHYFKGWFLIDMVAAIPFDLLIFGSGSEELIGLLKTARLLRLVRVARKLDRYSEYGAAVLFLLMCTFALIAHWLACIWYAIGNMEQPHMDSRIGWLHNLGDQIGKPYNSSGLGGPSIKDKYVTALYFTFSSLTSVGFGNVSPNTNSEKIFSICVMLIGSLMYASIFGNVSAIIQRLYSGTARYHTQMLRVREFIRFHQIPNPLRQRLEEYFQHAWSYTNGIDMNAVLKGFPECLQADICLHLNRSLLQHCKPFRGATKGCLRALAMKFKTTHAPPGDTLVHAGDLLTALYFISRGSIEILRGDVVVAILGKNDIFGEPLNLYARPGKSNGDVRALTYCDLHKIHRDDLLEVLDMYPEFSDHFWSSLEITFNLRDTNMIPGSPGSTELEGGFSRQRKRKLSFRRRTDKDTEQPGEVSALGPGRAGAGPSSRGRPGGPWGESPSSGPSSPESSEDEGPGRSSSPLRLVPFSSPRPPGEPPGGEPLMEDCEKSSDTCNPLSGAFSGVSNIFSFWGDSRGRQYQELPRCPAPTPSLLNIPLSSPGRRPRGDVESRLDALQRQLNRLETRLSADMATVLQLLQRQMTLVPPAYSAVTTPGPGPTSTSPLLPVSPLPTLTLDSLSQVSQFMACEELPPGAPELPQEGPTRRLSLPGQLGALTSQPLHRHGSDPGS

SMILES	MIC (Staphylococcus aureus [1])	IC50 [2]	MIC (Staphylococcus aureus [3])	IC50 [4]	IC50 [5]	MIC (Staphylococcus aureus [6])	MIC (Staphylococcus aureus [7])	MIC90 (Staphylococcus aureus [8])	MIC90 (Streptococcus pyogenes)	other results
COc1ccc2ncc(F)c([C@@H](O)CC[C@@H]3CCN(C4CC(c5cccc(F)c5F)C4)C[C@@H]3C(=O)O)c2c1 (stereo not given in full)	4 µg/mL (≈ 7.57 µM)	25 µM	8 µg/mL (≈ 15.1 µM)	7.5 µM	780 nM	≤ 0.0625 µg/mL	≤ 0.0625 µg/mL	–	–	–
COc1ccc2ncc(F)c([C@@H](O)CC[C@@H]3CCN(C4CC(c5ncccc5F)C4)C[C@@H]3C(=O)O)c2c1 (stereo not given in full)	32 µg/mL (≈ 62.6 µM)	10.7 µM	32 µg/mL (≈ 62.6 µM)	30 µM	6250 nM	0.125 µg/mL (≈ 0.244 µM)	0.5 µg/mL (≈ 0.977 µM)	1 µg/mL (≈ 1.95 µM)	2 µg/mL (≈ 3.91 µM)	–
COc1ccc2ncc(F)c([C@@H](O)CC[C@@H]3CCN(C4CC(c5cccc(F)c5)C4)C[C@@H]3C(=O)O)c2c1 (stereo not given in full)	16 µg/mL (≈ 31.3 µM)	–	16 µg/mL (≈ 31.3 µM)	19 µM	780 nM	≤ 0.0625 µg/mL	0.25 µg/mL (≈ 0.49 µM)	0.25 µg/mL (≈ 0.49 µM)	0.5 µg/mL (≈ 0.979 µM)	–
COc1ccc2ncc(F)c([C@@H](O)CC[C@@H]3CCN(C4CC(c5cc(F)cc(F)c5F)C4)C[C@@H]3C(=O)O)c2c1 (stereo not given in full)	2 µg/mL (≈ 3.66 µM)	–	1 µg/mL (≈ 1.83 µM)	4.7 µM	1560 nM	≤ 0.0625 µg/mL	≤ 0.0625 µg/mL	–	–	Stability [9]: Unstable
COc1ccc2ncc(F)c(C[C@H](O)[C@@H]3CC[C@@H](NCc4cc5c(nn4)OCCS5)CO3)c2n1	–	–	–	–	–	–	–	–	–	Ratio [10]: 43
COc1ccc2ncc(F)c([C@@H](O)CC[C@@H]3CCN(C4CC(c5cc(F)ccc5F)C4)C[C@@H]3C(=O)O)c2c1 (stereo not given in full)	2 µg/mL (≈ 3.78 µM)	85.9 µM	3.4 µg/mL (≈ 6.43 µM)	5.47 µM	977 nM	0.088 µg/mL (≈ 0.166 µM)	0.11 µg/mL (≈ 0.208 µM)	0.125 µg/mL (≈ 0.236 µM)	0.25 to 0.5 µg/mL (≈ 0.473 to 0.946 µM)	fCmax (Cavia porcellus [11]): 27.5 µM; Activity (Cavia porcellus [12]): Non-Toxic; Activity (Cavia porcellus [13]): Non-Toxic; fraction unbound [14]: 0.201; fraction unbound [15]: 0.197; fraction unbound [16]: 0.054; clearance [17]: 13.7 mL/min/kg; Vd [18]: 1.24 L/kg; half-life [19]: 63 min; clearance [20]: 30.9 mL/min/kg; Vd [21]: 1.82 L/kg; half-life [22]: 40.8 min; Activity (Staphylococcus aureus [23]): 79.7 to 82.8 mg/kg/day; Ratio [10]: 39
COc1ccc2ncc(F)c([C@@H](O)CC[C@@H]3CCN(C4CC(c5cc(F)cc(F)c5)C4)C[C@@H]3C(=O)O)c2c1 (stereo not given in full)	–	–	5.7 µg/mL (≈ 10.8 µM)	6.25 µM	1200 nM	0.125 µg/mL (≈ 0.236 µM)	0.35 µg/mL (≈ 0.662 µM)	0.25 µg/mL (≈ 0.473 µM)	1 µg/mL (≈ 1.89 µM)	–
COc1ccc2ncc(F)c([C@@H](O)CC[C@@H]3CCN(C4CC(c5cncc(F)c5)C4)C[C@@H]3C(=O)O)c2c1 (stereo not given in full)	–	–	> 64 µg/mL	> 120 µM	4700 nM	2 µg/mL (≈ 3.91 µM)	32 µg/mL (≈ 62.6 µM)	–	–	–
COc1ccc2ncc(F)c([C@@H](O)CC[C@@H]3CCN(C4CC(c5ccno5)C4)C[C@@H]3C(=O)O)c2c1 (stereo not given in full)	–	> 300 µM	> 64 µg/mL	35.1 µM	2680 nM	0.5 µg/mL (≈ 1.03 µM)	4 µg/mL (≈ 8.27 µM)	–	–	–
COc1ccc2ncc(F)c([C@@H](O)CC[C@@H]3CCN(C4CC(c5ccc(F)s5)C4)C[C@@H]3C(=O)O)c2c1 (stereo not given in full)	16 µg/mL (≈ 31 µM)	–	16 µg/mL (≈ 31 µM)	19 µM	780 nM	≤ 0.0625 µg/mL	≤ 0.0625 µg/mL	0.125 µg/mL (≈ 0.242 µM)	0.5 µg/mL (≈ 0.968 µM)	–
COc1ccc2ncc(F)c([C@@H](O)CC[C@@H]3CCN(C4CC(c5ccccc5)C4)C[C@@H]3C(=O)O)c2c1 (stereo not given in full)	8 µg/mL (≈ 16.2 µM)	22.3 µM	22.6 µg/mL (≈ 45.9 µM)	15.9 µM	1150 nM	0.069 µg/mL (≈ 0.14 µM)	0.125 µg/mL (≈ 0.254 µM)	0.25 µg/mL (≈ 0.508 µM)	1 µg/mL (≈ 2.03 µM)	fraction unbound [14]: 0.15 to 0.158; fraction unbound [15]: 0.277 to 0.334; fraction unbound [16]: 0.122 to 0.211; clearance [17]: 17.3 mL/min/kg; Vd [18]: 1.01 L/kg; half-life [19]: 40.2 min; clearance [20]: 18.4 mL/min/kg; Vd [21]: 1.82 L/kg; half-life [22]: 68.4 min; Activity (Staphylococcus aureus [23]): 92.1 mg/kg/day
O=c1ccc2ncc(=O)n3c2n1C[C@H]3CN1CCC(NCc2cc3c(cn2)OCCC3)CC1 [GEPOTIDACIN]	–	1310 µM	8 to 32 µg/mL (≈ 17.8 to 71.3 µM)	–	–	–	–	–	–	Cmax [24]: 7000 to 13000 ng/mL; Ratio [10]: 13.4
CN[C@H](CC(C)C)C(=O)N[C@H]1C(=O)N[C@@H](CC(N)=O)C(=O)N[C@H]2C(=O)N[C@H]3C(=O)N[C@H](C(=O)N[C@H](C(=O)O)c4cc(O)cc(O)c4-c4cc3ccc4O)[C@H](O)c3ccc(c(Cl)c3)Oc3cc2cc(c3O[C@@H]2O[C@H](CO)[C@@H](O)[C@H](O)[C@H]2O[C@H]2C[C@](C)(N)[C@H](O)[C@H](C)O2)Oc2ccc(cc2Cl)[C@H]1O [VANCOMYCIN]	–	–	–	–	–	–	–	–	–	Activity (Staphylococcus aureus [23]): 29 mg/kg/day

From ChEMBL document CHEMBL4033742, “Novel 3-fluoro-6-methoxyquinoline derivatives as inhibitors of bacterial DNA gyrase and topoisomerase IV” (Bioorg Med Chem Lett, 2017)
